Experimental data reported in US10472341B2, “Bicyclic tetrahydrothiazepine derivatives useful for the treatment of neoplastic and/or infectious diseases” (APEIRON BIOLOGICS AG, priority 2015, dated 2019).
Several values for one entry are separate records, joined by “and”; a condition that tells them apart may be missing. Identical values can stand only once. Counter-ions that a name gives are not always drawn. Like-named read-outs stand apart in the source and are kept apart here.

Legend:
[1] = system: aCD3/aCD28-stimulated human PBMCs; assay: Cytokine production in aCD3/aCD28 stimulated human PBMCs; type: cell-based; settings: PBMC, 18 h
Method in brief: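 Compound effects measured in buffy-coat PBMCs activated 18 h at 37° C by 1 μg/mL each of soluble anti-CD3 (OKT3) and anti-CD28 (28.2), 1e6 cells/mL. Cytokines in harvested supernatants read by MSD or HTRF.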

[2] = system: CD4 T cells; assay: CD69 expression on aCD3/aCD28 stimulated isolated human CD4 T cells (flow cytometry); type: cell-based; settings: 24 h after TCR stimulation, read-out: Activity Class CD69 (CD4)
Method: (§1) Isolated T cells were plated in Xvivo medium at 1.5*10 ^5 cells per in 96 well culture plates and TCR-stimulated with anti-CD3/28 mAbs in the presence of compound as indicated. Cytokine production was determined at 24 h or 48 h following TCR stimulation in cell culture supernatants using commercially available ELISA kits (BD and eBioscience) as recommended by the manufacturer. T cell proliferation and CD25 expression (CD25-PC5 reagent purchased from Beckman Coulter) was determined by flow cytometry (Beckman-Coulter FC500) and analysed with Kaluza Software. For measurement of CD69 expression, isolated CD4 and CD8 T cells were plated in Xvivo medium at […] per in 96 well culture plates and TCR-stimulated with anti-CD3/28 mAbs in the presence of compound. CD69 expression was determined at 24 h following TCR stimulation by flow cytometry (CD4eF450, CD8APCeF780 and CD69-PC7 reagent purchased from eBioscience) and analysed with Kaluza Software.
(§2) For measurement of CD69 expression, isolated CD4 and CD8 T cells were plated in Xvivo medium at 80000 cells per in 96 well culture plates and TCR-stimulated with anti-CD3/28 mAbs in the presence of compound. CD69 expression was determined at 24 h following TCR stimulation by flow cytometry (CD4eF450, CD8APCeF780 and CD69-PC7 reagent purchased from eBioscience) and analysed with Kaluza Software.

[3] = system: CD8 T cells; assay: CD69 expression on aCD3/aCD28 stimulated isolated human CD8 T cells (flow cytometry); type: cell-based; settings: T-cell, 24 h after TCR stimulation, read-out: Activity Class CD69 (CD8)
Method: as §1, §2

[4] = system: aCD3/aCD28-stimulated human CD4+-T-cells; assay: IL-2 production and activation markers in aCD3/aCD28 stimulated isolated human CD4+-T-cells; type: cell-based; settings: IL-2 production at 3 μM compound
Method in brief: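 CD4+ T cells isolated from buffy-coat PBMCs by microbeads were plated in Xvivo medium (1.5*10^5 cells/well) and stimulated with anti-CD3/28 mAbs plus compound. IL-2 measured by ELISA in supernatants at 24 h or 48 h; CD25 and proliferation by flow cytometry, CD69 at 24 h. Activity classes based on IL-2 at 3 μM compound.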

[5] = system: CD8 T cells & M21 tumor cells; assay: CD8 T cells from M21-prestimulated PBMCs restimulated with M21 tumor cells, with or without PD-1 blockade; type: cell-based, human; settings: for Average Granzyme B / Average IFN-g / Average IL-2 / Average Number of living M21 tumor cells: no cpd
Method: For experiments investigating effects of PD-1 blockade, PBMCs were preincubated with 1 h UV-irradiated M21 tumor cells (50000 tumor cells per 1 Mill. PBMCs) for 14 days. […] Compounds and anti-PD-1 antibody (Nivolumab) or control antibody without direct effects on CD8 T cells (Ipilimumab) were added where indicated.
[…] Example 107, no antibody (no Ig), anti-PD-1 antibody (Nivolumab) or control antibody without direct effects on CD8 T cells (Ipilimumab) were included where indicated.

[6] = enhancement of IFN-γ production, read-out: Activity Class IFN-γ
[7] = enhancement of IL-2 production, read-out: Activity Class IL-2

Row | Molecule | EC50 [1, 6] | EC50 [1, 7] | EC50 [2] | EC50 [3] | further results
1 | Cl.N[C@H]1CS(=O)(=O)c2cc(F)c(C(=O)N[C@@H]3CC3(F)F)cc2N(Cc2ccc(Cl)cc2)C1=O (single isomer, unassigned) [Example 106, hydrochloride] | 1.58 to 5.01 µM | 1.58 to 5.01 µM | 1.58 to 5.01 µM | 1.58 to 5.01 µM | 
2 | Cl.N[C@H]1CS(=O)(=O)c2cc(F)c(C(=O)N[C@H]3CC3(F)F)cc2N(Cc2ccc(Cl)cc2)C1=O (single isomer, unassigned) [Example 107, hydrochloride] | < 1.58 µM | < 1.58 µM | < 1.58 µM | < 1.58 µM | 
3 | N[C@H]1C[S@+]([O-])c2cc(F)c(C(=O)NCCCC(F)(F)F)cc2N(Cc2ccc(Cl)cc2)C1=O (single isomer, unassigned) [Example 122, hydrochloride] | < 1.58 µM | 1.58 to 5.01 µM | 1.58 to 5.01 µM | 1.58 to 5.01 µM | 
4 | N[C@H]1C[S@@+]([O-])c2cc(F)c(C(=O)NCCCC(F)(F)F)cc2N(Cc2ccc(Cl)cc2)C1=O (single isomer, unassigned) [Example 123, hydrochloride] | < 1.58 µM | 1.58 to 5.01 µM | > 5.01 µM | > 5.01 µM | 
5 | Cl.N[C@H]1CSc2cc(F)c(C(=O)NCc3ccc(F)cc3)cc2N(Cc2nnc(C3CC3)s2)C1=O [Example 113, (3R)-3-amino-5-[(5-cyclopropyl-1,3,4-thiadiazol-2-yl)methyl]-8-fluoro-N-[(4-fluorophenyl)methyl]-4-oxo-2,3,4,5-tetrahydro-1,5-benzothiazepine-7-carboxamide hydrochloride] | 1.58 to 5.01 µM | > 5.01 µM |  |  | Activity Class CD4+ [4]: C (IL-2 production at 3 μM compound concentration between 2-fold increase as compared to mean IL-2 production of stimulated cells in the absence of compounds and <2 ng/mL)
6 | CCCCNC(=O)c1cc2c(cc1N(C)C)S(=O)(=O)C[C@H](N)C(=O)N2Cc1ccc(Cl)cc1 [Example 114, (3R)-3-amino-N-butyl-5-[(4-chlorophenyl)methyl]-8-(dimethylamino)-1,1,4-trioxo-2,3,4,5-tetrahydro-1 λ^6,5-benzothiazepine-7-carboxamide hydrochloride] | 1.58 to 5.01 µM | > 5.01 µM |  |  | Activity Class CD4+ [4]: C (IL-2 production at 3 μM compound concentration between 2-fold increase as compared to mean IL-2 production of stimulated cells in the absence of compounds and <2 ng/mL)
7 | N#Cc1ccc(CN2C(=O)[C@@H](N)CS(=O)(=O)c3cc(F)c(C(=O)NC4CC4(F)F)cc32)cc1 (stereo partly drawn) [Example 124, (3R)-3-amino-5-[(4-cyanophenyl)methyl]-N-(2,2-difluorocyclopropyl)-8-fluoro-1,1,4-trioxo-2,3,4,5-tetrahydro-1λ^6,5-benzothiazepine-7-carboxamide hydrochloride] | 1.58 to 5.01 µM | > 5.01 µM | > 5.01 µM | > 5.01 µM | 
8 | N#Cc1ccc(CN2C(=O)[C@@H](N)CS(=O)(=O)c3cc(F)c(C(=O)NCCCC(F)(F)F)cc32)cc1 [Example 125, (3R)-3-amino-5-[(4-cyanophenyl)methyl]-8-fluoro-1,1,4-trioxo-N-(4,4,4-trifluorobutyl)-2,3,4,5-tetrahydro-1λ^6,5-benzothiazepine-7-carboxamide hydrochloride] | < 1.58 µM | 1.58 to 5.01 µM | 1.58 to 5.01 µM | 1.58 to 5.01 µM | 
9 | N[C@H]1CS(=O)(=O)c2cc(F)c(C(=O)NC3CCC(F)(F)CC3)cc2N(Cc2ccc(Cl)cc2)C1=O [Example 126, (3R)-3-amino-5-[(4-chlorophenyl)methyl]-N-(4,4-difluorocyclohexyl)-8-fluoro-1,1,4-trioxo-2,3,4,5-tetrahydro-1λ^6,5-benzothiazepine-7-carboxamide hydrochloride] | < 1.58 µM | < 1.58 µM | < 1.58 µM | < 1.58 µM | 
10 | N[C@H]1CS(=O)(=O)c2cc(F)c(C(=O)NC3CC3C(F)(F)F)cc2N(Cc2ccc(Cl)cc2)C1=O (stereo partly drawn) [Example 127, (3R)-3-amino-5-[(4-chlorophenyl)methyl]-8-fluoro-1,1,4-trioxo-N-[2-(trifluoromethyl)cyclopropyl]-2,3,4,5-tetrahydro-1λ^6,5-benzothiazepine-7-carboxamide hydrochloride] | < 1.58 µM | 1.58 to 5.01 µM | < 1.58 µM | < 1.58 µM | 
11 | N[C@H]1CSc2cc(F)c(C(=O)NC3CC(F)(F)C3)cc2N(Cc2ccc(Cl)cc2)C1=O [Example 128, (3R)-3-amino-5-[(4-chlorophenyl)methyl]-N-(3,3-difluorocyclobutyl)-8-fluoro-4-oxo-2,3,4,5-tetrahydro-1,5-benzothiazepine-7-carboxamide hydrochloride] | 1.58 to 5.01 µM | 1.58 to 5.01 µM | > 5.01 µM | 1.58 to 5.01 µM | 
12 | N[C@H]1CS(=O)(=O)c2cc(F)c(C(=O)NCCCC(F)(F)F)cc2N(Cc2ccc(F)cc2)C1=O [Example 129, (3R)-3-amino-8-fluoro-5-[(4-fluorophenyl)methyl]-1,1,4-trioxo-N-(4,4,4-trifluorobutyl)-2,3,4,5-tetrahydro-1λ^6,5-benzothiazepine-7-carboxamide hydrochloride] | < 1.58 µM | 1.58 to 5.01 µM | < 1.58 µM | < 1.58 µM | 
13 | N[C@H]1CS(=O)(=O)c2cc(F)c(C(=O)NC3CC3(F)F)cc2N(Cc2ccc(F)cc2)C1=O (stereo partly drawn) [Example 130, (3R)-3-amino-N-(2,2-difluorocyclopropyl)-8-fluoro-5-[(4-fluorophenyl)methyl]-1,1,4-trioxo-2,3,4,5-tetrahydro-1λ^6,5-benzothiazepine-7-carboxamide hydrochloride] | 1.58 to 5.01 µM | > 5.01 µM | > 5.01 µM | 1.58 to 5.01 µM | 
14 | CCCCNC(=O)c1cc2c(cc1F)SC[C@H](N)C(=O)N2Cc1ccc(F)cc1 [Example 131, (3R)-3-amino-N-butyl-8-fluoro-5-[(4-fluorophenyl)methyl]-4-oxo-2,3,4,5-tetrahydro-1,5-benzothiazepine-7-carboxamide hydrochloride] | 1.58 to 5.01 µM | > 5.01 µM | > 5.01 µM | > 5.01 µM | 
15 | N[C@H]1CSc2cc(F)c(C(=O)NCc3ccccc3)cc2N(Cc2ccc(F)cc2)C1=O [Example 132, (3R)-3-amino-N-benzyl-8-fluoro-5-[(4-fluorophenyl)methyl]-4-oxo-2,3,4,5-tetrahydro-1,5-benzothiazepine-7-carboxamide hydrochloride] | 1.58 to 5.01 µM | > 5.01 µM | > 5.01 µM | > 5.01 µM | 
16 | CCCCNC(=O)c1cc2c(cc1F)S(=O)(=O)C[C@H](N)C(=O)N2Cc1ccc(F)cc1 [Example 133, (3R)-3-amino-N-butyl-8-fluoro-5-[(4-fluorophenyl)methyl]-1,1,4-trioxo-2,3,4,5-tetrahydro-1λ^6,5-benzothiazepine-7-carboxamide hydrochloride] | < 1.58 µM | 1.58 to 5.01 µM | < 1.58 µM | < 1.58 µM | 
17 | CCCCNC(=O)c1cc2c(cn1)S(=O)(=O)C[C@H](N)C(=O)N2Cc1ccc(Cl)cc1 [Example 183, (3R)-3-amino-N-butyl-1-[(4-chlorophenyl)methyl]-2,5,5-trioxo-1H,2H,3H,4H-5λ^6-pyrido[3,4-b][1,4]thiazepine-8-carboxamide hydrochloride] | > 5.01 µM | > 5.01 µM |  |  | Activity Class CD4+ [4]: C (IL-2 production at 3 μM compound concentration between 2-fold increase as compared to mean IL-2 production of stimulated cells in the absence of compounds and <2 ng/mL)
18 | Ipilimumab |  |  |  |  | Average Granzyme B ([5]; Ipilimumab alone): 0.612 ng/mL; Average IFN-g ([5]; Ipilimumab alone): 0.000 ng/mL; Average IL-2 ([5]; Ipilimumab alone): 0.024 ng/mL; Average Number of living M21 tumor cells ([5]; Ipilimumab alone): 22648 and 25130; synergistic enhancement of cytokine production with example 107 ([5]; control antibody not targeting CD8 T cells): No such effects were observed
19 | Nivolumab |  |  |  |  | reduction in viable tumor cells ([5]; Nivolumab alone): not able to cause a significant reduction in viable tumor cells; Average Granzyme B ([5]; Nivolumab alone): 1.758 ng/mL; Average IFN-g ([5]; Nivolumab alone): 0.014 ng/mL; Average IL-2 ([5]; Nivolumab alone): 0.046 ng/mL; Average Number of living M21 tumor cells ([5]; Nivolumab alone): 20344 and 22655; cytokine secretion ([5]; PD-1 blockade alone, CD8 T cells & M21 (expresses PD-L1)): also enhanced cytokine secretion
